In the supplement of paper PMC10307832:

How the values were obtained:
Experiment in all cases: relative viability (nuclei count vs DMSO), 5 days (fraction); higher = more cells survive
NCI-H1975 = tested on: NCI-H1975
How it was run: (§1)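 Lung cancer cell lines in 1536-well plates were dosed by pin tool the day after seeding, either with one drug alone or with a fixed anchor-drug dose plus five library-drug doses (not always all listed) in √10 steps. After 5 days, cells were fixed and their nuclei stained in one step (final 0.05% Triton X-100, 1% formaldehyde, 1 ug/ml Hoechst), then counted on 4× images. Relative viability is the nuclei count in treated wells divided by that in vehicle wells. Values are medians of duplicate plates.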

NCI-H1563 = tested on: NCI-H1563
How it was run: as §1

NCI-H596 = tested on: NCI-H596
How it was run: as §1

LOU-NH91 = tested on: LOU-NH91
How it was run: as §1

EMC-BAC-2 = tested on: EMC-BAC-2
How it was run: as §1

PC-3 [JPC-3] = tested on: PC-3 [JPC-3]
How it was run: as §1

LK-2 = tested on: LK-2
How it was run: as §1

A-427 = tested on: A-427
How it was run: as §1

SW 900 = tested on: SW 900
How it was run: as §1

NCI-H1755 = tested on: NCI-H1755
How it was run: as §1

NCI-H23 = tested on: NCI-H23
How it was run: as §1

NCI-H520 = tested on: NCI-H520
How it was run: as §1

NCI-H441 = tested on: NCI-H441
How it was run: as §1

EKVX = tested on: EKVX
How it was run: as §1

NCI-H1666 = tested on: NCI-H1666
How it was run: as §1

SK-MES-1 = tested on: SK-MES-1
How it was run: as §1

COR-L 105 = tested on: COR-L 105
How it was run: as §1

NCI-H2170 = tested on: NCI-H2170
How it was run: as §1

ChaGo-K-1 = tested on: ChaGo-K-1
How it was run: as §1

NCI-H1734 = tested on: NCI-H1734
How it was run: as §1

H3255 = tested on: H3255
How it was run: as §1

For COc1cc2nccc(Oc3ccc(NC(=O)Nc4cc(C)on4)c(Cl)c3)c2cc1OC [Tivozanib] + CCNC(=O)c1noc(-c2cc(C(C)C)c(O)cc2O)c1-c1ccc(CN2CCOCC2)cc1 [Luminespib] (partner 0.01 µM), the relative viability (NCI-H1975; first compound 0.005 µM) was 0.172, the relative viability (NCI-H1975; first compound 0.01581 µM) was 0.34 and the relative viability (NCI-H1975; first compound 0.05 µM) was 0.199. The relative viability (NCI-H1975; first compound 0.1581 µM) was 0.198, the relative viability (NCI-H1975; first compound 0.5 µM) was 0.316 and the relative viability (NCI-H1563; first compound 0.005 µM) was 0.45. It also gave a relative viability (NCI-H1563; first compound 0.01581 µM) of 0.539, a relative viability (NCI-H1563; first compound 0.05 µM) of 0.541 and a relative viability (NCI-H1563; first compound 0.1581 µM) of 0.52. The relative viability (NCI-H1563; first compound 0.5 µM) was 0.472, the relative viability (NCI-H596; first compound 0.005 µM) was 0.771 and the relative viability (NCI-H596; first compound 0.01581 µM) was 1.04. The relative viability (NCI-H596; first compound 0.05 µM) was 1.04, the relative viability (NCI-H596; first compound 0.5 µM) was 0.858 and the relative viability (LOU-NH91; first compound 0.005 µM) was 0.334. For the same compound, the relative viability (LOU-NH91; first compound 0.01581 µM) was 0.333, the relative viability (LOU-NH91; first compound 0.05 µM) was 0.374 and the relative viability (LOU-NH91; first compound 0.1581 µM) was 0.33. The relative viability (LOU-NH91; first compound 0.5 µM) was 0.35, the relative viability (EMC-BAC-2; first compound 0.005 µM) was 1.13 and the relative viability (EMC-BAC-2; first compound 0.01581 µM) was 1.18. The relative viability (EMC-BAC-2; first compound 0.05 µM) was 1.26, the relative viability (EMC-BAC-2; first compound 0.1581 µM) was 1.13 and the relative viability (EMC-BAC-2; first compound 0.5 µM) was 1.16. The relative viability (PC-3 [JPC-3]; first compound 0.005 µM) was 0.744, the relative viability (PC-3 [JPC-3]; first compound 0.01581 µM) was 0.636 and the relative viability (PC-3 [JPC-3]; first compound 0.05 µM) was 0.751. For the same compound, the relative viability (PC-3 [JPC-3]; first compound 0.1581 µM) was 0.716, the relative viability (PC-3 [JPC-3]; first compound 0.5 µM) was 0.766 and the relative viability (LK-2; first compound 0.005 µM) was 0.179. For the same compound, the relative viability (LK-2; first compound 0.01581 µM) was 0.225, the relative viability (LK-2; first compound 0.05 µM) was 0.184 and the relative viability (LK-2; first compound 0.1581 µM) was 0.233. The relative viability (LK-2; first compound 0.5 µM) was 0.206, the relative viability (A-427; first compound 0.005 µM) was 1.09 and the relative viability (A-427; first compound 0.01581 µM) was 0.902. It also gave a relative viability (A-427; first compound 0.05 µM) of 1.02, a relative viability (A-427; first compound 0.1581 µM) of 0.836 and a relative viability (A-427; first compound 0.5 µM) of 1.01. The relative viability (SW 900; first compound 0.005 µM) was 0.174, the relative viability (SW 900; first compound 0.01581 µM) was 0.186 and the relative viability (SW 900; first compound 0.05 µM) was 0.184. It also gave a relative viability (SW 900; first compound 0.1581 µM) of 0.167, a relative viability (SW 900; first compound 0.5 µM) of 0.172 and a relative viability (NCI-H1755; first compound 0.005 µM) of 0.466. For the same compound, the relative viability (NCI-H1755; first compound 0.01581 µM) was 0.346, the relative viability (NCI-H1755; first compound 0.05 µM) was 0.406 and the relative viability (NCI-H1755; first compound 0.1581 µM) was 0.329. For the same compound, the relative viability (NCI-H1755; first compound 0.5 µM) was 0.453, the relative viability (NCI-H23; first compound 0.01581 µM) was 0.198 and the relative viability (NCI-H23; first compound 0.05 µM) was 0.193. It also gave a relative viability (NCI-H23; first compound 0.1581 µM) of 0.206, a relative viability (NCI-H23; first compound 0.5 µM) of 0.207 and a relative viability (NCI-H520; first compound 0.005 µM) of 0.287. For the same compound, the relative viability (NCI-H520; first compound 0.01581 µM) was 0.219, the relative viability (NCI-H520; first compound 0.05 µM) was 0.222 and the relative viability (NCI-H520; first compound 0.1581 µM) was 0.328. For the same compound, the relative viability (NCI-H520; first compound 0.5 µM) was 0.245, the relative viability (NCI-H441; first compound 0.005 µM) was 0.367 and the relative viability (NCI-H441; first compound 0.01581 µM) was 0.446. For the same compound, the relative viability (NCI-H441; first compound 0.05 µM) was 0.308, the relative viability (NCI-H441; first compound 0.1581 µM) was 0.322 and the relative viability (NCI-H441; first compound 0.5 µM) was 0.399. It also gave a relative viability (EKVX; first compound 0.005 µM) of 0.856, a relative viability (EKVX; first compound 0.01581 µM) of 0.834 and a relative viability (EKVX; first compound 0.05 µM) of 0.879. For the same compound, the relative viability (EKVX; first compound 0.1581 µM) was 0.908, the relative viability (EKVX; first compound 0.5 µM) was 0.847 and the relative viability (NCI-H1666; first compound 0.005 µM) was 0.89. For the same compound, the relative viability (NCI-H1666; first compound 0.01581 µM) was 0.998, the relative viability (NCI-H1666; first compound 0.05 µM) was 0.993 and the relative viability (NCI-H1666; first compound 0.1581 µM) was 1.01. For the same compound, the relative viability (NCI-H1666; first compound 0.5 µM) was 1, the relative viability (SK-MES-1; first compound 0.005 µM) was 0.737 and the relative viability (SK-MES-1; first compound 0.01581 µM) was 0.832. The relative viability (SK-MES-1; first compound 0.05 µM) was 0.773, the relative viability (SK-MES-1; first compound 0.1581 µM) was 0.837 and the relative viability (SK-MES-1; first compound 0.5 µM) was 0.807. It also gave a relative viability (COR-L 105; first compound 0.005 µM) of 0.669, a relative viability (COR-L 105; first compound 0.01581 µM) of 0.657 and a relative viability (COR-L 105; first compound 0.05 µM) of 1.07. It also gave a relative viability (COR-L 105; first compound 0.1581 µM) of 0.734, a relative viability (COR-L 105; first compound 0.5 µM) of 0.751 and a relative viability (NCI-H2170; first compound 0.005 µM) of 0.711. For the same compound, the relative viability (NCI-H2170; first compound 0.01581 µM) was 0.606, the relative viability (NCI-H2170; first compound 0.05 µM) was 0.661 and the relative viability (NCI-H2170; first compound 0.1581 µM) was 0.304. It also gave a relative viability (NCI-H2170; first compound 0.5 µM) of 0.907, a relative viability (ChaGo-K-1; first compound 0.005 µM) of 0.622 and a relative viability (ChaGo-K-1; first compound 0.01581 µM) of 0.565. For the same compound, the relative viability (ChaGo-K-1; first compound 0.05 µM) was 0.593, the relative viability (ChaGo-K-1; first compound 0.1581 µM) was 0.497 and the relative viability (ChaGo-K-1; first compound 0.5 µM) was 0.502. It also gave a relative viability (NCI-H1734; first compound 0.005 µM) of 0.2, a relative viability (NCI-H1734; first compound 0.01581 µM) of 0.231 and a relative viability (NCI-H1734; first compound 0.05 µM) of 0.325. For the same compound, the relative viability (NCI-H1734; first compound 0.1581 µM) was 0.178, the relative viability (NCI-H1734; first compound 0.5 µM) was 0.18 and the relative viability (H3255; first compound 0.005 µM) was 0.69. For the same compound, the relative viability (H3255; first compound 0.01581 µM) was 0.851, the relative viability (H3255; first compound 0.05 µM) was 0.821 and the relative viability (H3255; first compound 0.1581 µM) was 0.704. The relative viability (H3255; first compound 0.5 µM) was 0.681.
